# According to PubChem BioAssay (NCI):
#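 Compound exposure: 48 hours, 5 concentrations, 96-well plates. TGI marks complete inhibition of growth.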
# What was measured:
# Assay in all cases: DTP human tumour cell line panel, 48 h
# [1] = system: CAKI-1 renal
# [2] = system: CCRF-CEM leukemia
# [3] = system: HCC-2998 colon
# [4] = system: HCT-116 colon
# [5] = system: MALME-3M melanoma
# [6] = system: MDA-MB-435
# [7] = system: MOLT-4 leukemia
# [8] = system: SK-MEL-28 melanoma
# [9] = system: TK-10 renal
# [10] = system: SW-620 colon
Structure (SMILES),TGI [1] [µM],TGI [2] [µM],TGI [3] [µM],TGI [4] [µM],TGI [5] [µM],TGI [6] [µM],TGI [7] [µM],TGI [8] [µM],TGI [9] [µM],TGI [10] [µM]
CCOP(=O)(OCC)C(Nc1cccc(F)c1)c1ccccc1 (configuration not stated),> 100,> 100,> 100,> 100,> 100,> 100,> 100,> 100,> 100,
COc1ccc(/C=c2\[nH]c3nc(=O)c(N4CCOCC4)c(N)n3c2=O)cc1,> 100,> 100,> 100,> 100,> 100,> 100,> 100,> 100,> 100,> 100
C[C@@H](O)C(=O)N1[C@@H]2CC3CC[C@]2(CS1(=O)=O)C3(C)C,> 100,72.9,> 100,> 100,,> 100,> 100,> 100,> 100,> 100
Cc1ccc(C(=O)N/N=C(\N=Nc2cccc(Cl)c2)c2ccc(N(CCC#N)CCC#N)cc2C)cc1,> 100,> 100,> 100,> 100,> 100,> 100,> 100,> 100,> 100,> 100
COc1cc(/C=C/C(=O)c2c(=O)o[nH][n+]2-c2ccccc2)ccc1[O-],9.41,3.52,6.28,5.67,12,9.24,5.59,8.85,10.5,5.85
N#Cc1nc(CCCCCN2C(=O)c3ccccc3C2=O)oc1N,> 100,74.5,> 100,> 100,> 100,> 100,> 100,> 100,> 100,> 100
Cc1ccc(C(=O)O)c(CC2Cc3c(C)cccc3C2=O)c1 (configuration not stated),> 100,> 100,> 100,> 100,> 100,> 100,> 100,> 100,> 100,> 100
CCOC(=O)c1c(CN2CCNCC2)nc2ccccc2c1-c1ccccc1,25.7,38.2,3.63,23.7,22,28.5,25,25.1,27.3,34.9
Cn1nc2n(c1=O)CCCN2,,> 100,> 100,> 100,> 100,> 100,,> 100,> 100,> 100
C/C(=N\NC(=S)N1CCCCC1)c1cccc(C)n1,12.4,,21.8,,2.13,16.8,> 100,36.9,21.3,18.3
CN(C)CCNC(=O)c1ccc(NCCCN(C)CCCNc2ccc3c(=O)n(CCN(C)C)c(=O)n4c5ccccc5c(=O)c2c34)c2c(=O)c3ccccc3[nH]c12,1.06,,0.146,0.0704,0.453,0.18,1.1,1.34,0.687,
